The values that follow come from US7879808B2, “Lincomycin derivatives and antimicrobial agents comprising the same as active ingredient” (Meiji Seika Kaisha, Ltd., priority 2007, dated 2011).

The structures appear in SMILES notation. ≈ marks a conversion by molar mass, not a printed value.

Type in all cases: cell-based
One assay concerns S. pneumoniae MSC10197. Put plainly: MIC against S. pneumoniae MSC10197 (CLSI M7-A7 agar method). More on the design: unit not given here. To be noted: Sensitivity disk agar-N+5% horse aseptic defibranated blood, about 10^4 CFU/ml. As for the experimental part: (§1) For representative compounds among lincomycin derivatives according to the present invention, the minimal inhibitory concentration (MIC, […]) against various pneumococci was measured according to the method described in Clinical and Laboratory Standards Institute, M7-A7, 2006. Sensitivity disk agar-N+5% horse aseptic defibranated blood was used as the medium for the measurement. The amount of bacteria inoculated was about 10^4 CFU/ml.

A further assay concerns S. pneumoniae MSC07571. Put plainly: MIC against S. pneumoniae MSC07571 (CLSI M7-A7 agar method). To be noted: Sensitivity disk agar-N+5% horse aseptic defibranated blood, about 10^4 CFU/ml; for MIC: Streptococcus pneumoniae, read-out: minimal inhibitory concentration (MIC). How it is done:
as §1

For a further assay, the system named is S. pneumoniae MSC17994. Put plainly: MIC against S. pneumoniae MSC17994 (CLSI M7-A7 agar method). More on the design: unit not given here. To be noted: Sensitivity disk agar-N+5% horse aseptic defibranated blood, about 10^4 CFU/ml. As for the experimental part: as §1
The test system of a further assay is S. pneumoniae MSC07337. Nature of the assay: MIC against S. pneumoniae MSC07337 (CLSI M7-A7 agar method). More on the design: unit not given here. To be noted: Sensitivity disk agar-N+5% horse aseptic defibranated blood, about 10^4 CFU/ml. As for the experimental part: as §1
In a further assay the test system is S. pneumoniae MSC07471. Nature of the assay: MIC against S. pneumoniae MSC07471 (CLSI M7-A7 agar method). To be noted: Sensitivity disk agar-N+5% horse aseptic defibranated blood, about 10^4 CFU/ml. More on the design: unit not given here. As for the experimental part:
as §1

In another assay the test system is S. pneumoniae MSC07365. Put plainly: MIC against S. pneumoniae MSC07365 (CLSI M7-A7 agar method). More on the design: unit not given here. To be noted: Sensitivity disk agar-N+5% horse aseptic defibranated blood, about 10^4 CFU/ml. As for the experimental part: as §1
A further assay concerns S. pneumoniae MSC07465. Nature of the assay: MIC against S. pneumoniae MSC07465 (CLSI M7-A7 agar method). To be noted: Sensitivity disk agar-N+5% horse aseptic defibranated blood, about 10^4 CFU/ml. More on the design: unit not given here. How it is done:
as §1

On to `CSC1OC(C(NC(=O)[C@@H]2C[C@H](CC3CC3)CCN2C)C(C)Sc2ccc(CCN(C)C3CC3)cc2)C(O)C(O)C1O` (stereo partly drawn) [Compound 54, Methyl 7-(4-(2-(cyclopropyl(methyl)-amino)ethyl)phenyl-thio)-6-N-((2S,4R)-4-(cyclopropylmethyl)-1-methylpiperidine-2-carbonyl)-7-deoxy-7-epi-1-thio-α-lincosamide], for which the “minimal inhibitory concentration (MIC)” value was 0.03 in the assay with S. pneumoniae MSC10197; 30 µg/mL (≈ 48.2 µM) in the assay on S. pneumoniae MSC07571; 0.06 with S. pneumoniae MSC17994; 2 in the assay on S. pneumoniae MSC07337; 2 in the assay on S. pneumoniae MSC07471; 4 with S. pneumoniae MSC07365. For the same molecule, in the assay with S. pneumoniae MSC07465, the “minimal inhibitory concentration (MIC)” value is given as 0.015.

In the case of `CSC1OC(C(NC(=O)[C@@H]2C[C@H](CC3CC3)CCN2C)C(C)Sc2ccc(CCN(C)C)nc2)C(O)C(O)C1O` (stereo partly drawn) [Compound 52, Methyl 6-N-((2S,4R)-(4-cyclopropylmethyl-1-methyl)piperidine-2-carbonyl)-7-deoxy-7-(6-(2-(dimethylamino)ethyl)-pyridin-3-ylthio)-7-epi-1-thio-α-lincosamide], the “minimal inhibitory concentration (MIC)” value with S. pneumoniae MSC10197 was 0.25; in the assay with S. pneumoniae MSC07571, 250 µg/mL (≈ 419 µM); in the assay on S. pneumoniae MSC17994, 0.25; in the assay with S. pneumoniae MSC07337 it was 32; with S. pneumoniae MSC07471, 32; in the assay with S. pneumoniae MSC07365, 64. Also, the “minimal inhibitory concentration (MIC)” value in the assay with S. pneumoniae MSC07465 was 0.25.

In the case of `CCC[C@@H]1C[C@@H](C(=O)NC(C2OC(SC)C(O)C(O)C2O)[C@H](C)Sc2ccc(CCN(C)CCN(C)C)cc2)N(C)C1` (stereo partly shown) [Compound 10, 7-Deoxy-7-(4-(2-((2-(dimethylamino)ethyl)-(methyl)amino)ethyl)-phenylthio)-7-epilincomycin], in the assay with S. pneumoniae MSC07571, the MIC stood at 60 µg/mL (≈ 95.7 µM).

As to `CCC[C@@H]1C[C@@H](C(=O)NC(C2OC(SC)C(O)C(O)C2O)[C@H](C)Sc2ccc(CCN(C)C)cc2)N(C)C1` (stereo partly shown) [Compound 1, 7-Deoxy-7-(4-(2-(dimethylamino)ethyl)phenylthio)-7-epilincomycin], the MIC with S. pneumoniae MSC07571 turned out to be 15 µg/mL (≈ 26.3 µM).
